Assay results reported in US7501513B2, “Immunosuppressive effects of pteridine derivatives” (4 AZA Bioscience NV, priority 2003, dated 2009).
Read-outs that look alike come from different tables or passages of the source.

Tests used:
[1] = test system: Peripheral blood mononuclear cells; assay: Mixed lymphocyte reaction (MLR) test; type: cell-based, human; details: 50% suppression of the MLR
Method: (§1) Pteridine derivatives were first dissolved (10 mM) in dimethylsulfoxide (hereinafter referred as DMSO) and further diluted in culture medium before use for the following in vitro experiments. The commercially available culture medium consisted of RPMI-1640+10% foetal calf serum (FCS). Some pteridine derivatives described the previous examples were tested in the following lymphocyte activation tests:
(§2) Peripheral blood mononuclear cells (hereinafter referred as PBMC) were isolated from heparinized peripheral blood by density gradient centrifugation over Lymphoprep (Nycomed, Maorstua, Norway). Allogeneic PBMC or Eppstein-Barr Virus-transformed human B cells [commercially available under the trade name RPMI1788 (ATCC name CCL156)] which strongly express B7-1 and B7-2 antigens were used as stimulator cells after irradiation with 30 Gy. MLR was performed in triplicate wells. After 5 days incubation at 37° C., 1 μCi [^3H]-thymidine was added to each cup. After a further 16 hours incubation, cells were harvested and counted in a β-counter. Inhibition of proliferation by a compound (drug) described in some of the previous examples was counted using the formula:
(§3) [formula] wherein cpm is the thymidine count per minute. The MLR assay is regarded by those skilled in the art as an in vitro analogue of the transplant rejection since it is based on the recognition of allogeneic major histocompatibility antigens on the stimulator leukocytes, by responding lymphocytes. Assays for CD3 and CD 28
Pteridine derivatives were first dissolved (10 mM) in dimethylsulfoxide (hereinafter referred as DMSO) and further diluted in culture medium before use for the following in vitro experiments. The commercially available culture medium consisted of RPMI-1640+10% foetal calf serum (FCS). Some pteridine derivatives described in the previous examples (as indicated in table 3 below) were tested in the following mixed lymphocyte reaction (MLR) assay.
as §2, with “CCL156)]which” for “CCL156)] which”
as §3, with “lymphocytes.” for “lymphocytes. Assays for CD3 and CD 28”

[2] = test system: Highly purified T cells stimulated by anti-CD3 mAb; assay: CD3 assay: T-cell proliferation stimulated by immobilized anti-CD3 mAb + PMA (BrdU); type: cell-based, human; details: 50% reduction in T-cell proliferation, read-out: CD 3 IC50
Method: as §1
(§4) T cells were purified by removing non-T cells. Briefly, monocytes were removed by cold agglutination. The resulting lymphoid cells were further purified by a cell enrichment immunocolumn [Cellect Human T commercially available from Biotex, Edmonton, Alberta, Canada)] by a process of negative selection. More than 95% of the B cells were removed with this procedure. After depletion, the resulting T cell preparation was highly purified, i.e. these cells could not be activated by phytohaemagglutinin (PHA) or rIL-2 alone at concentrations capable of stimulating RBMC prior to deletion.
(§5) Highly purified T cells (10^6/ml) were stimulated by immobilized anti-CD3 or anti-CD28 monoclonal antibodies (hereinafter referred as mAb) in the presence of phorbol myristate acetate (hereinafter referred as PMA). Anti-CD3 mAb (available from CLB, Amsterdam, Netherlands) were fixed on a 96-microwell plates by incubating the wells with 50 μl of mAb solution (1/800 dilution in culture medium). For anti-CD28 mAb (available from CLB, Amsterdam, Netherlands) 50 μl (1/650 dilution in culture medium) was added directly to the wells. Further, a 20 μl PMA (commercially available from Sigma, St. Louis, Mo., USA) solution (final concentration: 0.5 ng/ml) was added. Subsequently, 20 μl of a pteridine derivative described in the previous examples were added by serial dilution in triplicate wells. Finally 100 μl of the T-cell suspension (10^6/ml) was added. After 48-hour incubation at 37° C. in 5% CO2, 20 μl of a bromo-deuridine (hereinafter referred as BrdU) 100 μM solution (commercially available as Cell Proliferation Elisa from Boehringer-Mannheim Belgium) was added to each well. After a further overnight incubation, T-cell proliferation was measured using a calorimetric immuno-assay for qualification of cell proliferation based on the incorporation of BrdU during DNA synthesis. Optical density (hereinafter referred as OD) was measured by a Behring EL311 plate reader at 450 nm (reference wavelength: 690 nm). Inhibition of proliferation by the pteridine derivative (drug) was counted while using the formula: […]

[3] = test system: Highly purified T cells stimulated by anti-CD28 mAb; assay: CD28 assay: T-cell proliferation stimulated by anti-CD28 mAb + PMA (BrdU); type: cell-based, human; details: 50% reduction in T-cell proliferation
Method: as §1, §4, §5

human TNF-α = assay: TNF-α assay: suppression of TNF-α production by LPS-stimulated PBMC (ELISA); type: cell-based; details: LPS 1 μg/ml, 72 hours
Method: (§6) Peripheral blood mononuclear cells (herein referred as PBMC), in response to stimulation by lipopolysaccharide (LPS), a gram-negative bacterial endotoxin, produce various […], in particular human TNF-α and IL-1 β. Inhibition of the activation of PBMC can therefore be measured by the level of suppression of the production of TNF-α or IL-1 β by PBMC in response to stimulation by LPS.
(§7) Such inhibition measurement was performed as follows: PBMC were isolated from heparinized peripheral blood by density gradient centrifugation over Lymphoprep (commercially available from Nycomed, Norway). LPS was then added to the PMBC suspension in complete medium (10^6 cells/ml) at a final concentration of 1 μg/ml. The pteridine derivative to be tested was added at different concentrations (0.1 μM, 1 μM and 10 μM) and the cells were incubated at 37° C. for 72 hours in 5% CO2. The supernatants were collected, then TNF-α and/or IL-1 β concentrations were measured with respectively an anti-TNF-α antibody or an anti-IL-1 β antibody in a sandwich ELISA (Duo Set ELISA human TNFα, commercially available from R&D Systems, United Kingdom). The calorimetric reading of the ELISA was measured by a Multiskan RC plate reader (commercially available from ThermoLabsystems, Finland) at 450 nm (reference wavelength: 690 nm). Data analysis was performed with Ascent software 2.6. (also from ThermoLabsystems, Finland): a standard curve (recombinant human TNFα) was drawn and the amount (pg/ml) of each sample on the standard curve was determined.
The % suppression of human TNFα production or human IL-1 β by the pteridine derivatives of the invention (drugs) was calculated using the formula: […]
as §6, with “(hereinafter LPS),” for “(LPS),”, “TNF-α.” for “TNF-α and IL-1 β.”, “TNF-α” for “TNF-α or IL-1 β”
as §7, with “TNF-α” for “TNF-α and/or IL-1 β”, “with” for “with respectively”, “anti-TNF-α” for “anti-TNF-α antibody or an anti-IL-1 β”, “TNF-α,” for “TNFα,”, “colorimetric” for “calorimetric”
The % suppression of human TNFα production by the pteridine derivatives of the invention (drugs) was calculated using the formula: […]

CCOc1nc(N)nc2ncc(-c3cccc(OC)c3)nc12 [Example 15, 2-amino-6-(m-methoxyphenyl)-4-ethoxy-pteridine]
IC50 ([1]; Homo sapiens, PBMC, Table 1): 8.3 µM | IC50 ([2]; Homo sapiens): 20 µM | IC50 ([3]; Homo sapiens): 7 µM | IC50 (human TNF-α; Homo sapiens, PBMC, Table 2): > 10 µM

CCOc1nc(N)nc2ncc(-c3ccc(F)c(F)c3)nc12 [Example 16]
IC50 ([1]; Table 1): > 10 µM | IC50 [2]: 9 µM | IC50 [3]: 4 µM

CCOc1nc(N)nc2ncc(-c3ccc(C(F)(F)F)cc3)nc12 [Example 18, 2-amino-6-(p-trifluoromethylphenyl)-4-ethoxy-pteridine]
IC50 ([1]; Homo sapiens, PBMC, Table 1): 10 µM | IC50 ([2]; Homo sapiens): 10 µM | IC50 ([3]; Homo sapiens): 0.8 µM

CCOc1nc(N)nc2ncc(-c3ccsc3)nc12 [Example 20, 2-amino-6-(3-thienyl)-4-ethoxy-pteridine]
IC50 ([2]; Homo sapiens): 15 µM | IC50 ([3]; Homo sapiens): 0.7 µM

CCOc1nc(N)nc2ncc(-c3ccc(CC)cc3)nc12 [Example 25, 2-amino-6-(p-ethylphenyl)-4-ethoxy-pteridine]
IC50 ([1]; Homo sapiens, PBMC, Table 1): 8.2 µM | IC50 ([2]; Homo sapiens): 10 µM | IC50 ([3]; Homo sapiens): 10 µM | IC50 (human TNF-α; Homo sapiens, PBMC, Table 2): 8.5 µM

Cc1ccc(-c2cnc3nc(N)nc(OC(C)C)c3n2)cc1C [Example 32, 2-amino-6-(3,4-dimethylphenyl)-4-isopropoxypteridine]
IC50 ([1]; Homo sapiens, PBMC, Table 1): 10 µM | IC50 (human TNF-α; Homo sapiens, PBMC, Table 2): 6.7 µM

CC(=O)Nc1ccc(-c2cnc3nc(N)nc(N4CCOCC4)c3n2)cc1 [Example 72, 2-amino-4-morpholino-6-(4-acetanilide)pteridine]
IC50 ([1]; Table 3): 8.6 µM | IC50 (human TNF-α; Table 4): 8.4 µM

Nc1ccc(-c2cnc3nc(N)nc(N4CCOCC4)c3n2)cc1 [Example 74, 2-amino-morpholino-6-(4-aminophenyl)pteridine]
IC50 ([1]; Table 3): 1.1 µM | IC50 (human TNF-α; Table 4): 2.5 µM

CCS(=O)(=O)Nc1cccc(-c2cnc3nc(N)nc(N4CCOCC4)c3n2)c1 [Example 97, 2-amino-4-morpholino-6-(3-ethylsulfonylaminophenyl)pteridine]
IC50 ([1]; Homo sapiens, PBMC, Table 3): 3.3 µM | IC50 (human TNF-α; Homo sapiens, PBMC, Table 4): > 10 µM

CC(C)(C)OC(=O)N[C@@H](Cc1ccccc1)C(=O)Nc1cccc(-c2cnc3nc(N)nc(N4CCOCC4)c3n2)c1 [Example 98, 2-amino-4-morpholino-6-[3-Boc-(L)-phenylalanine-aminophenyl]pteridine]
IC50 ([1]; Table 3): 3.9 µM | IC50 (human TNF-α; Table 4): 2.9 µM

Nc1nc(N2CCOCC2)c2nc(-c3ccc(O)cc3)cnc2n1 [Example 102, 2-amino-4-morpholino-6-(4-hydroxyphenyl)pteridine]
IC50 ([1]; Homo sapiens, PBMC, Table 3): 4.3 µM | IC50 (human TNF-α; Homo sapiens, PBMC, Table 4): 2.1 µM

CCOc1ccc(-c2cnc3nc(N)nc(N4CCOCC4)c3n2)cc1 [Example 103, 2-amino-4-morpholino-6-(4-ethoxyphenyl)pteridine]
IC50 ([1]; Homo sapiens, PBMC, Table 3): 3.7 µM | IC50 (human TNF-α; Homo sapiens, PBMC, Table 4): > 10 µM

CCCOc1ccc(-c2cnc3nc(N)nc(N4CCOCC4)c3n2)cc1 [Example 107, 2-amino-4-morpholino-6-(4-propoxy-phenyl)pteridine]
IC50 ([1]; Homo sapiens, PBMC, Table 3): 6.8 µM | IC50 (human TNF-α; Homo sapiens, PBMC, Table 4): > 10 µM

COc1ccc(-c2cnc3nc(N)nc(N(CCO)CCO)c3n2)cc1OC [Example 112]
IC50 ([1]; Table 3): 6 µM | IC50 (human TNF-α; Table 4): 3.4 µM

COc1ccc(-c2cnc3nc(N)nc(NCCc4ccccc4)c3n2)cc1OC [Example 114]
IC50 ([1]; Table 3): 6 µM | IC50 (human TNF-α; Table 4): 7.1 µM

COc1ccc(-c2cnc3nc(N)nc(N4CCC(C)CC4)c3n2)cc1OC [Example 115]
IC50 ([1]; Table 3): 0.8 µM | IC50 (human TNF-α; Table 4): 0.3 µM

COc1ccc(-c2cnc3nc(N)nc(NCc4cccs4)c3n2)cc1OC [Example 116]
IC50 ([1]; Table 3): 4.1 µM | IC50 (human TNF-α; Table 4): 7.2 µM

COc1ccc(-c2cnc3nc(N)nc(N4CCSCC4)c3n2)cc1OC [Example 118]
IC50 ([1]; Table 3): 0.4 µM | IC50 (human TNF-α; Table 4): 0.5 µM

CC[C@@H](C)Nc1nc(N)nc2ncc(-c3ccc(OC)c(OC)c3)nc12 [Example 119]
IC50 ([1]; Table 3): 0.5 µM | IC50 (human TNF-α; Table 4): 0.2 µM

CC[C@H](C)Nc1nc(N)nc2ncc(-c3ccc(OC)c(OC)c3)nc12 [Example 120]
IC50 ([1]; Table 3): 0.2 µM | IC50 (human TNF-α; Table 4): 0.3 µM
